Assays:
recombinant DNMT3b = recombinant DNMT3b (Homo sapiens, UniProt Q9UBC3); test: DNMT3b enzyme kinetic (activity) assay, 3H-SAM filter; type: biochemical; settings: FIG. 1B, 0-0.0001 M
Experimental: (§1) The enzyme kinetic studies were carried out by Reaction Biology Company. For the DNMT1 activity assay, the substrate solution, 0.001 mg/ml Poly(dI-dC): Poly(dI-dC) in 50 mM Tris-HCl, pH 7.5, 50 mM NaCl, 5 mM EDTA, 5 mM DTT, 1 mM PMSF, 5% glycerol, 0.01% Brij™35, 1% DMSO was used. For the DNMT3a/3b activity assay, 0.0075 mg/ml Lambda DNA in 50 mM Tris-HCl, pH 7.5, 50 mM NaCl, 5 mM EDTA, 5 mM DTT, 1 mM PMSF, 5% glycerol, 1% DMSO, was used. The indicated DNMT1, DNMT3a and DNMT3b were added to the appropriate substrate solution and gently mixed. Amounts of CA ranging from 5.08E-09 to 0.0001 M in DMSO were added to the reaction mixture by using Acoustic Technology (Echo® 550, LabCyte Inc. Sunnyvale, CA). The mixtures were first incubated for 15 min, then ^3H-SAM was added to the reaction mixture to initiate the reaction, and the mixture was incubated for 60 min at 30° C. Following incubation, the reaction mixture was finally transferred to filter-paper for detection of radioactivity counts.

recombinant DNMT1 = recombinant DNMT1 (Homo sapiens, UniProt P26358); test: DNMT1 enzyme kinetic (activity) assay, 3H-SAM filter; type: biochemical; settings: FIG. 1B, 0-0.0001 M
Experimental: as §1

recombinant DNMT3a = recombinant DNMT3a (Homo sapiens, UniProt Q9Y6K1); test: DNMT3a enzyme kinetic (activity) assay, 3H-SAM filter; type: biochemical; settings: FIG. 1B, 0-0.0001 M
Experimental: as §1

Hep G2 cells = type: in vitro ADME, human
Source text: Mitochondrial oxysterols, including cholestenoic acid (CA), 25-hydroxycholesterol (25HC), and 27-hydroxycholesterol (27HC), are potent regulators involved in important biological events such as lipid metabolism and inflammatory responses. However, their intracellular catabolic pathways have not been fully explored. In this study, we investigated the metabolic pathways of these oxysterols and their roles in the communication between hepatocytes and macrophages.

Human THP-1 macrophages = test: LPS induced inflammatory gene expression in macrophages, real-time RT-PCR; type: cell-based; settings: 20 uM CA3S 30 min, then 2 ug/ml LPS 6 hours
Experimental: Human THP-1 were plated in 6 well plates with RPMI 1640 media (10% FBS) and induced to be macrophages by 100 nM PMA for 3 days at 37° C. in a […] incubator. The media was then changed to fresh RPMI 1640 (serum free), the cells were treated with 20 uM CA3S in PG for 30 min, and then the cells were stimulated with 2 ug/ml LPS for 6 hours. Total mRNA was extracted by the Promega SV total RNA isolation system (Promega, Madison, WI, USA) and 1 ug of RNA were converted to cDNA with a Reverse Transcription kit (Qiagen, Hilden, Germany). IL-1A, IL-1B, IL-6, IL-8, COX-2, NFKB and TNFα gene expressions were determined by Real-time RT-PCR that was performed using SYBR Green as the indicator on ABI 7500 Fast Real-Time PCR System (Applied Biosystems, Foster City, CA).

recombinant DNMT1, sequence (P26358 whole entry): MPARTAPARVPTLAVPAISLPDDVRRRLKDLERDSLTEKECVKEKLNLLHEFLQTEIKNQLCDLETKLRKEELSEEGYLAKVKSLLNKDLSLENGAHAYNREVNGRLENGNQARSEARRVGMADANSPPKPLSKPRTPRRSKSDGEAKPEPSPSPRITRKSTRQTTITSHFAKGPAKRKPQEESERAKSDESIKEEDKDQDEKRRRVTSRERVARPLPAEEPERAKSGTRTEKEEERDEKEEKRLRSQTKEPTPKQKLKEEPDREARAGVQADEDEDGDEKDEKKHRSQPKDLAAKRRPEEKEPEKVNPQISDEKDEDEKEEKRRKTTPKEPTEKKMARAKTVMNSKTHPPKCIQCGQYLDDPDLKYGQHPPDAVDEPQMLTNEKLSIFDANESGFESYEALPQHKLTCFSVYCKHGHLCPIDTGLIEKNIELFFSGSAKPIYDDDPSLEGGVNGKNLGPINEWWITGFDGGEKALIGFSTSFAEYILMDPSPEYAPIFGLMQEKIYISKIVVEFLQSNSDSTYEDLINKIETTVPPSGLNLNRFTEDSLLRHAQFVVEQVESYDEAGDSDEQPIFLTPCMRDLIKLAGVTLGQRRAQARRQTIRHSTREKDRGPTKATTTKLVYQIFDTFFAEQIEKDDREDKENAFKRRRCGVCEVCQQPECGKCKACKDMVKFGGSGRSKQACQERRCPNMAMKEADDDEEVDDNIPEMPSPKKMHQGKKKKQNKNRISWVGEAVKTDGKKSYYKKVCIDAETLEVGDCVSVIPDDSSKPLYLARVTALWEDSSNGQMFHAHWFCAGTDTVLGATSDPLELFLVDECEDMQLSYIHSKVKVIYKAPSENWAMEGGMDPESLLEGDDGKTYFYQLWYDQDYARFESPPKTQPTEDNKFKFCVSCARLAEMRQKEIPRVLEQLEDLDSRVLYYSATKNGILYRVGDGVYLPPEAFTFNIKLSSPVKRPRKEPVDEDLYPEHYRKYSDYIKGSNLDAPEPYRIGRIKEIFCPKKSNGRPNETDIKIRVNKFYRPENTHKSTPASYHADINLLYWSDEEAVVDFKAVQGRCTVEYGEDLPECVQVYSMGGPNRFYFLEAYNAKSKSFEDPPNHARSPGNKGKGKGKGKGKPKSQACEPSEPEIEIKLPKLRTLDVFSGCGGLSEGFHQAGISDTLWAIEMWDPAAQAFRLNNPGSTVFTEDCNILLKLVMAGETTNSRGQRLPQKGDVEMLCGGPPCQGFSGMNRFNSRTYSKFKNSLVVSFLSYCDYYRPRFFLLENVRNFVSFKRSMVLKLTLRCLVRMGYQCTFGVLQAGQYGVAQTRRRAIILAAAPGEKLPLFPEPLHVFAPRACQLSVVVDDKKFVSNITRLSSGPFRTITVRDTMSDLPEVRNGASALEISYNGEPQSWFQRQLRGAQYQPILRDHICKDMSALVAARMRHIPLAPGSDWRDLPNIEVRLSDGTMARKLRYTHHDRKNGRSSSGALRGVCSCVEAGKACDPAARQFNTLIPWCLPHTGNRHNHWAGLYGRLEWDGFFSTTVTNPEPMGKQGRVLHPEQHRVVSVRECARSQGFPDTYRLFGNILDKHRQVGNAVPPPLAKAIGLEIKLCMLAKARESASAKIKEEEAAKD
recombinant DNMT3a, sequence (Q9Y6K1 whole entry, looked up): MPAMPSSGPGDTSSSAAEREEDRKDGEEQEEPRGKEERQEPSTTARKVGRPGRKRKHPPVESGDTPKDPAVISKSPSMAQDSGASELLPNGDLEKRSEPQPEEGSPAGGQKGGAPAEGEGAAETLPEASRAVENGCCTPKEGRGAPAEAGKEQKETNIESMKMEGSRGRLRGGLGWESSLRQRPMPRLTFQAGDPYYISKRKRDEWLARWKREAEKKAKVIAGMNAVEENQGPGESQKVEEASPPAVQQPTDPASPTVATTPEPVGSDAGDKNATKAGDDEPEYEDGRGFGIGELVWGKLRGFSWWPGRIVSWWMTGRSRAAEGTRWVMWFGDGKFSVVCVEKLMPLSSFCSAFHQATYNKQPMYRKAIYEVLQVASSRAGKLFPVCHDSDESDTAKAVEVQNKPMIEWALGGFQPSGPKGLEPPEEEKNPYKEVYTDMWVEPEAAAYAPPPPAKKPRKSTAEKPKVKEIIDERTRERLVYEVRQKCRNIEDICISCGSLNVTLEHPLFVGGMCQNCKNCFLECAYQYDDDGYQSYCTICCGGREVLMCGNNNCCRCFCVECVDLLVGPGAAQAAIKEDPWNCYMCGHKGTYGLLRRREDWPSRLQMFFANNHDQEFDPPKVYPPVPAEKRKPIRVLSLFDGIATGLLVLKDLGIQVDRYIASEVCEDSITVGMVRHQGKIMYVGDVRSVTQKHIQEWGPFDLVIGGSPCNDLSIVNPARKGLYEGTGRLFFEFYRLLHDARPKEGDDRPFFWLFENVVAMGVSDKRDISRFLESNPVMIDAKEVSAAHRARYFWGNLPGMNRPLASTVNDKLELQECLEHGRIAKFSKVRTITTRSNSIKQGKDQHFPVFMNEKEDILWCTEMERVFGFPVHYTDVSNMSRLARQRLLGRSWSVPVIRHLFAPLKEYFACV

Structure (SMILES)	effect on DNMT3b enzymatic activity (recombinant DNMT3b)	effect on DNMT1 enzymatic activity (recombinant DNMT1)	effect on DNMT3a enzymatic activity (recombinant DNMT3a)	part of the compound converted to 27HC3S (Hep G2 cells)	part of the compound converted to CA3S (Hep G2 cells)	part of formed 25HC3S released into the media (Hep G2 cells)	decrease of COX-2 gene expression (Human THP-1 macrophages) [fold]	decrease of IL-6 gene expression (Human THP-1 macrophages) [fold]
C[C@@H](CO)CCC[C@@H](C)[C@H]1CC[C@H]2[C@@H]3CC=C4C[C@@H](O)CC[C@]4(C)[C@H]3CC[C@]12C [27HC, 27-hydroxycholesterol]	do not have any effect	potent activators	do not have any effect	⅓	⅔			
C[C@H](CCCC(C)(C)O)[C@H]1CC[C@H]2[C@@H]3CC=C4C[C@@H](O)CC[C@]4(C)[C@H]3CC[C@]12C [25HC, 25-hydroxycholesterol]	do not have any effect	potent activators	do not have any effect			⅓		
CC(CCC[C@@H](C)[C@H]1CCC2[C@@H]3CC=C4CC(OS(=O)(=O)O)CC[C@]4(C)C3CC[C@@]21C)C(=O)O (stereo partly drawn) [CA3S, 3 β-hydroxy-5-cholestenoic acid 3-sulfate]							5	6
